The target of series [1] is T1, Cytochrome P450 11B2, mitochondrial (Rattus norvegicus, UniProt P30099).
T1 sequence (P30099 whole entry): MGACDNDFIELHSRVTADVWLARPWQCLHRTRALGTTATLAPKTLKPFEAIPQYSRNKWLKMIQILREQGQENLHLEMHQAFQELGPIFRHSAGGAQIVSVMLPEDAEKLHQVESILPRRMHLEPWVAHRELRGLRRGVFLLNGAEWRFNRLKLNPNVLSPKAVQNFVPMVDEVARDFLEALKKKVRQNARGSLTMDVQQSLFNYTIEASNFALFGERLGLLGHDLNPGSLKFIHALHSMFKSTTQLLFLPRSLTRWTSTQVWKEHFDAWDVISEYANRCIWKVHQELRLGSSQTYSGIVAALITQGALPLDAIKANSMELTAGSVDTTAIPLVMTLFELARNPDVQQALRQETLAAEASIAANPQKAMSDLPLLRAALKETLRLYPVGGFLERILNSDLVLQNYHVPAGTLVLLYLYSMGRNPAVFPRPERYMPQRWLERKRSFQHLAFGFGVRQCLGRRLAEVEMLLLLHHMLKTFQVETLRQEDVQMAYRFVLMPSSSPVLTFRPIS

Series [2] addresses T2, Aromatase (Rattus norvegicus, UniProt P22443).
T2 sequence (P22443 whole entry): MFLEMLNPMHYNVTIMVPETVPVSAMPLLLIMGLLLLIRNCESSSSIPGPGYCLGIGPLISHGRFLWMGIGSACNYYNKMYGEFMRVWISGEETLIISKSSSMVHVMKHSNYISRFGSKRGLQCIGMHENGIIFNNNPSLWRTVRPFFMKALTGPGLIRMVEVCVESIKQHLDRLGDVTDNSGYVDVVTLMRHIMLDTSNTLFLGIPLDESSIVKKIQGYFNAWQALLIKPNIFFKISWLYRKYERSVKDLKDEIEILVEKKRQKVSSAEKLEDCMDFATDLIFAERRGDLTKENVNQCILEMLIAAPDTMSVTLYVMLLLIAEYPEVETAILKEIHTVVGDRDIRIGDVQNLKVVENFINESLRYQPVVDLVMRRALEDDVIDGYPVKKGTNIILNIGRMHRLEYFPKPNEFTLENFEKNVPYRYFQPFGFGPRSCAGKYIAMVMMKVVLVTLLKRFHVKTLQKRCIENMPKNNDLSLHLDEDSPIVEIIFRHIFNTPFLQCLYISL
Conditions: in vivo, 30 mg/kg.

Series [3] has as its target T2, Aromatase. Conditions: in vivo, 30 mg/kg. This is another data set of the same source.
For series [4], the target named is T2, Aromatase. To be noted: in vivo, 30 mg/kg. The source holds these as a separate data set.
Series [5] concerns the target T2, Aromatase. To be noted: in vivo, 30 mg/kg. The source holds these as a separate data set.
Series [6] has as its target T3, Cytochrome P450 17 (Steroid 17-alpha-hydroxylase/17,20 lyase) (Rattus norvegicus, UniProt P11715).
T3 sequence (P11715 whole entry): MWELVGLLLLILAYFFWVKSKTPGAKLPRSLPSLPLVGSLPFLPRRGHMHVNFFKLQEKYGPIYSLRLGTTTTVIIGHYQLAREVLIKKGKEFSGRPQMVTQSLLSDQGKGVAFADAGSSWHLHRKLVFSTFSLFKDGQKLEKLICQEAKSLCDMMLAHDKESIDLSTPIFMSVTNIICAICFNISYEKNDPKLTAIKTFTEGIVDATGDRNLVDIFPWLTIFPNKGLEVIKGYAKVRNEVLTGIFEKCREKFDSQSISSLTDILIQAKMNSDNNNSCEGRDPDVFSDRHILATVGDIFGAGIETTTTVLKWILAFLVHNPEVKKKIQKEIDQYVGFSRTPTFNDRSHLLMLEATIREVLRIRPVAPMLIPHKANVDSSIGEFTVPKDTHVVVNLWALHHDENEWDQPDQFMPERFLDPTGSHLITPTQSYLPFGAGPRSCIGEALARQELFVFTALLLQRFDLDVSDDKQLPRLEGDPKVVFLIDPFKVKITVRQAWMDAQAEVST
As to the kind of experiment: in vitro.

For series [7], the target named is T4, Cytochrome P450 18 hydroxylase (Cytochrome P450 11B2, mitochondrial) (Homo sapiens, UniProt P19099).
T4 sequence (P19099 whole entry): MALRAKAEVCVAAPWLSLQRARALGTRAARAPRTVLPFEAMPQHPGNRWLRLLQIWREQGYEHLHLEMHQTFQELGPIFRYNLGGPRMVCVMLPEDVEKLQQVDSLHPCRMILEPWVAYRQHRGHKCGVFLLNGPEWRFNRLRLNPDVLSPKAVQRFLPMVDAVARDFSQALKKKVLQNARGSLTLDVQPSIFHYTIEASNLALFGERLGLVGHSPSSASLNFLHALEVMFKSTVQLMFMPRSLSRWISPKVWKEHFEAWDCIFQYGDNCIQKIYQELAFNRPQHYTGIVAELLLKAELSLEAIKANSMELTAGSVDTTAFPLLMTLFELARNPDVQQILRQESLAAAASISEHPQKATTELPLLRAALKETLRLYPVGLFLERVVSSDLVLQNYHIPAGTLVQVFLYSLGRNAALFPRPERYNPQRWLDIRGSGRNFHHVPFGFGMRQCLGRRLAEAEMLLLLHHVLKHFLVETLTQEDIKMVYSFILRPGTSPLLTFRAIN
Put plainly: in vitro. To be noted: cattle.

Series [8] has as its target T5, Steroid 17-alpha-hydroxylase/17,20 lyase (Rattus norvegicus, UniProt P11715).
T5 sequence (P11715 whole entry): T3 sequence (P11715 whole entry)
Conditions: 125 µM.

The target of series [9] is T6, Cytochrome P450 11B1, mitochondrial (Homo sapiens, UniProt P15538).
T6 sequence (P15538 whole entry): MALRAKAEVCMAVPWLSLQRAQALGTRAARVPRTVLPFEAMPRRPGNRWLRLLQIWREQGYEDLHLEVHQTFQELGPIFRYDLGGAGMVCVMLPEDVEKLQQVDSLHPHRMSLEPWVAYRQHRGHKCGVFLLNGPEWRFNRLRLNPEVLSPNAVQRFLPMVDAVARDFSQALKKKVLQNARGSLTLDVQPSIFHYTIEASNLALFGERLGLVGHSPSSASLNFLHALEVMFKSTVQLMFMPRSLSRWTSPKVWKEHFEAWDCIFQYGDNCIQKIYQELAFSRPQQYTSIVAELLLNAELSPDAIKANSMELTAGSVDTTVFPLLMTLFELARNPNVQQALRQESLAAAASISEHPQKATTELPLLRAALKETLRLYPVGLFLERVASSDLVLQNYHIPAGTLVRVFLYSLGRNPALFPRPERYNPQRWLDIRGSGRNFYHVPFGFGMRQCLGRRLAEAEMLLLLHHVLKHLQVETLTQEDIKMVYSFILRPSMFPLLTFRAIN

In series [10] the target is T1, Cytochrome P450 11B2, mitochondrial. The source holds these as a separate data set.
Series [11] shares this target. The source holds these as a separate data set.
Series [12] is filed under the species Rattus norvegicus. Format: functional.
For series [13], the species on record is Rattus norvegicus. In kind it is functional. This is another data set of the same source.
The species named for series [14] is Rattus norvegicus. In kind it is functional. The source holds these as a separate data set.
Series [15] is filed under the species Rattus norvegicus. Format: functional. This is another data set of the same source.
The species named for series [16] is Rattus norvegicus. Format: functional. This is another data set of the same source.
For series [17], the species on record is Rattus norvegicus. In kind it is functional. This is another data set of the same source.
The target in series [18] is T2, Aromatase. To be noted: in vivo, 30 mg/kg. The source holds these as a separate data set.
For series [19], the species on record is Rattus norvegicus. In kind it is functional. This is another data set of the same source.
The species named for series [20] is Rattus norvegicus. In kind it is functional. This is another data set of the same source.
The species entered for series [21] is Rattus norvegicus. In kind it is functional. The source holds these as a separate data set.
The species named for series [22] is Rattus norvegicus. Format: functional. The source holds these as a separate data set.
The species named for series [23] is Rattus norvegicus. In kind it is functional. The source holds these as a separate data set.
Series [24] is filed under the species Rattus norvegicus. In kind it is functional. This is another data set of the same source.
The species entered for series [25] is Rattus norvegicus. In kind it is functional. This is another data set of the same source.
Series [26] is filed under the species Rattus norvegicus. Format: functional. This is another data set of the same source.
Series [27] deals with T2, Aromatase.
Series [28] is filed under the species Rattus norvegicus. In kind it is functional. The source holds these as a separate data set.
For series [29], the species on record is Rattus norvegicus. Format: functional. This is another data set of the same source.
For series [30], the species on record is Rattus norvegicus. In kind it is functional. This is another data set of the same source.
For series [31], the species on record is Rattus norvegicus. Format: functional. The source holds these as a separate data set.

As usually defined, the IC50 is the concentration at which inhibition is half-maximal. Low values mean greater potency in that assay, high ones weaker potency in that assay. In turn, `Oc1ccc2c(c1)C1C(CC2)C1c1ccncc1` (stereo not given) registered an IC50 in series [1] of 7 µM.

In the case of `C[C@]12CCC(=O)C=C1CC[C@@H]1[C@@H]2CC[C@]2(C)C(=O)CC[C@@H]12` [ANDROSTENEDIONE], the Mean in series [2] is 202; in series [3], 187; in series [4], 138.

Broadly, the inhibition is how much of the control response was suppressed. Regarding `COc1ccc2c(c1)C1C(CC2)C1(C)c1ccncc1` (stereo not given), the Effect in series [5] stood at 139. This molecule also displayed an inhibition at 125 µM in [6] of 68%.

`Oc1ccc2c(c1)CCC1C(c3ccncc3)C21` (stereo not given) yielded an inhibition at 1 µM in series [7] of 36%. In [6], this molecule showed an inhibition at 125 µM of 41%.

As a reminder, the Inhibition is the relative decrease from the control value, in per cent. Lower therefore signals little suppression. Take `COc1ccc2c(c1)C1C(CC2)C1c1ccncc1` (stereo in doubt; (-)-4): the IC50 was 10 µM in series [1] and 30 µM in series [9]. The molecule further returned an Inhibition in [8] of 45%.

As to `CCC1(c2ccc(N)cc2)CCC(=O)NC1=O` (stereo not given) [AMINOGLUTETHIMIDE], the IC50 amounted to 50 µM in series [10] and 80 µM in series [11].

Regarding `COc1ccc2c(c1)C1C(CC2)C1c1ccncc1` (single isomer, unassigned; (+)), the IC50 was found to be 6 µM in [1] and 95 µM in series [9]. In addition, in [6], the inhibition at 125 µM turned out to be 54%.

Regarding `COc1cccc2c1CCC1C(c3ccncc3)C21` (stereo not given), the inhibition at 1 µM in [7] was determined as 38%. In [6], this molecule displayed an inhibition at 125 µM of 51%.

On to `c1ccc2c(c1)CCC1C(c3ccncc3)C21` (stereo not given), for which, in series [12], the “Change of tumor area” value worked out at 36%. The Tumors in [13] amounted to 16%; in series [14], 9%; in [15], 28%; in series [19] it was 47%. Further, the results for the No. of tumors in series [16] and in [17] were 1 and 32, respectively. The molecule further returned an IC50 in series [11] of 3 µM. For the same molecule, in series [18], the Mean was determined as 124. The inhibition at 1 µM in [7] came to 55%. Besides, in series [6], 125 µM produced 36% inhibition.

Consider `COc1cc2c(cc1Br)CCC1C(c3ccncc3)C21` (stereo in doubt; 7), for which, in series [5], the Effect amounted to 176.

Regarding `COc1ccc2c(c1)C1C(CC2)C1c1ccncc1` (stereo in doubt; 4), the “Change of tumor area” value in series [12] is 29%; in series [24], 55%. In addition, the Tumors in [20] is on record as 0%; in [21] it was 18%; in series [13], 15%; in series [23], 20%; in series [26], 15%; in series [19], 52%. The Tumors in series [28] came to 43%; in series [31], 37%. The No. of tumors is recorded as 33 in series [22], 5 in [25], 25 in [29] and 10 in [30]. In addition, the IC50 was 15 µM in series [1], 75 µM in series [9] and 0.265 µM in series [27]. The Effect in [5] is recorded as 132. The Inhibition in [8] is given as 47%. In [7], this molecule came in with an inhibition at 1 µM of 45%.

Source of the values: ChEMBL document CHEMBL1128393 (J Med Chem, 1995).
